Laboratory results reported in PMC5045383 (Oncotarget, 2016).

Assays:
MOLM-13 (FLT3-ITD/wt) = test: Cell proliferation assay (CellTiter-Glo); format: cell-based, human
Procedure: (§1) The human AML cell lines MV4-11, U937, OCI-AML-3 were purchased from the American Type Culture Collection (ATCC) (Manassas, VA, USA). The FLT3-ITD-expressing lines, MOLM-13, MOLM-14, were provided by Dr. Scott Armstrong, Dana Farber Cancer Institute (DFCI), Boston, MA. The wt FLT3-expressing AML line, NB4 (KRAS A18D), was obtained from Dr. Gary Gilliland. […] MV4-11 was cultured in IDMEM media (Corning, USA) with 10% FBS and supplemented with 2% L-glutamine and 1% penicillin/streptomycin. OCI-AML-3 was cultured in α-MEM media (Corning, USA) with 10% FBS and supplemented with 2% L-glutamine and 1% penicillin/streptomycin. All cell lines were maintained in culture media at 37°C with 5% CO2.
(§2) Cells were grown in 96-well culture plates (3000/well). […] Cell proliferation was determined after 72 hours drug treatment. […] Cell viability was measured with the CellTiter–Glo assay (Promega, USA), according to the manufacturer's instructions, and luminescence was measured in a multi-label reader (Envision, PerkinElmer, USA). […] GI50 values were calculated using Prism 5.0 (GraphPad Software, San Diego, CA).

MOLM-14 (FLT3-ITD/wt) = test: Cell proliferation assay (CellTiter-Glo); format: cell-based, human
Procedure: as §1, §2

MV4-11 (FLT3-ITD) = test: Cell proliferation assay (CellTiter-Glo); format: cell-based, human
Procedure: as §1, §2

NB4 (FLT3-wt) = test: Cell proliferation assay (CellTiter-Glo); format: cell-based, human; conditions: 72 hours
Procedure: as §1, §2

OCI-AML-3 (FLT3-wt) = test: Cell proliferation assay (CellTiter-Glo); format: cell-based, human; conditions: 72 hours
Procedure: as §1, §2

U937 (FLT3-wt) = test: Cell proliferation assay (CellTiter-Glo); format: cell-based, human
Procedure: as §1, §2

HL-60 (FLT3-wt) = test: Cell proliferation assay (CellTiter-Glo); format: cell-based, human; conditions: 72 hours
Procedure: as §2

SKM-1 (FLT3-wt) = test: Cell proliferation assay (CellTiter-Glo); format: cell-based, human; conditions: 72 hours
Procedure: as §2

PF-382 (FLT3-wt) = test: cells; format: cell-based; conditions: 72 hours
Procedure: as §2

MOLM-13 = test: Combination study TCS359 + MK2206; format: cell-based, human; conditions: TCS359 0.12 μM, MK2206 0.36 μM, alone or combined, 72 hours
Procedure: (§3) The FLT3-ITD-expressing lines MOLM-13, MOLM14 and MV4-11 were grown in 96-well culture plates (3000/well), respectively. Combination treatment with the FLT3 kinase inhibitor, TCS359, and with the Akt inhibitor, MK2206, was performed. Cell proliferation was determined after treatment with compounds for 72 hours. Cell viability was measured using the CellTiter–Glo assay (Promega, USA), data were normalized to control groups (DMSO) and represented by the mean of three independent measurements with standard error < 20%. CI index was calculated by Calcusyn software (Biosoft, version 2.1), using the Chou-Talalay method.

MOLM-14 = test: Combination study TCS359 + MK2206; format: cell-based, human; conditions: TCS359 3.3 μM, MK2206 0.12 μM, alone or combined, 72 hours
Procedure: as §3

MV4-11 [1] = test: Combination study TCS359 + MK2206; format: cell-based, human; conditions: TCS359 0.12 μM, MK2206 0.12 μM, alone or combined, 72 hours
Procedure: as §3

MOLM14 = test: Cell cycle analysis (PI, flow cytometry); format: cell-based, human; conditions: MOLM14, 1 μM, 24 hours
Procedure: (§4) The cells were fixed in 70% cold ethanol and incubated at −20°C overnight, then stained with PI/RNase staining buffer (BD Pharmingen). Flow cytometry was performed using a FACS Calibur (BD), and results were analyzed by ModFit software.

MV4-11 [2] = test: Cell cycle analysis (PI, flow cytometry); format: cell-based, human; conditions: MV4-11, 1 μM, 24 hours
Procedure: as §4

MOLM14, MV4-11 cells = test: Apoptosis effect examination (PARP, Caspase-3 immunoblot); format: cell-based, human; conditions: at 1 μM, 24 hours
Description: Cells were then washed in PBS and lysed in cell lysis buffer. PARP, Caspase-3, GAPDH antibodies (Cell signaling Technology) were used for immunoblotting.

[3] = test system: FLT3-ITD mediated signaling in MOLM14 and MV4-11 cell lines; test: Signaling pathway effect examination (immunoblot); format: cell-based, human; conditions: 1 μM, 4 hours
Description: Cells were then washed in PBS and lysed in cell lysis buffer. FLT3, Phospho-FLT3 (Tyr589/591), AKT, Phospho-AKT Ser473, Phospho-AKT Thr308, GSK-3β, Phospho-GSK-3β (Ser9), Phospho-FoxO1 (Thr24), FoxO1, PRAS40, Phospho-PRAS40 (Thr246), STAT5, Phospho-STAT5 (Tyr694), NF-ΚB-P65, Phospho-NF-ΚB-P65 (Ser536), P70S6K, Phospho-P70S6K Thr389, 4EBP1, Phospho-4EBP1 (Thr37/46), ERK, Phospho-p44/42MAPK (Erk1/2) (Thr202/Tyr204), C-Myc and GAPDH antibodies (Cell Signaling Technology) were used for immunoblotting.

[4] = test system: FLT3-ITD/FLT3 wt-expressing MOLM13 and MOLM14 cells
Procedure: as §2

[5] = Homo sapiens, MOLM-13 (FLT3-ITD/wt), 72 hours, Table 1
[6] = Homo sapiens, MOLM-14 (FLT3-ITD/wt), 72 hours, Table 1
[7] = Homo sapiens, MV4-11 (FLT3-ITD), 72 hours, Table 1
[8] = Homo sapiens, read-out: Relative activity(%)
[9] = MOLM-13 (FLT3-ITD/wt), 72 hours, Table 1
[10] = MV4-11 (FLT3-ITD), 72 hours, Table 1

Structure (SMILES)	GI50 (MOLM-13 (FLT3-ITD/wt); [5]) [µM]	GI50 (MOLM-14 (FLT3-ITD/wt); [6]) [µM]	GI50 (MV4-11 (FLT3-ITD); [7]) [µM]	GI50 (OCI-AML-3 (FLT3-wt); Homo sapiens) [µM]	GI50 (U937 (FLT3-wt); Homo sapiens, U-937, 72 hours) [µM]	GI50 (HL-60 (FLT3-wt); Homo sapiens) [µM]	GI50 (SKM-1 (FLT3-wt); Homo sapiens) [µM]	GI50 (NB4 (FLT3-wt); Homo sapiens) [µM]	GI50 (PF-382 (FLT3-wt); Homo sapiens) [µM]	%G0–G1 (MOLM14) [%]	%G2–M (MOLM14) [%]	%S (MOLM14) [%]	%G0–G1 (MV4-11 [2]) [%]	%G2–M (MV4-11 [2]) [%]	%S (MV4-11 [2]) [%]	apoptosis induction (MOLM14, MV4-11 cells)	GI50 (MOLM-13 (FLT3-ITD/wt); [9]) [µM]	GI50 (MV4-11 (FLT3-ITD); [10]) [µM]	GI50 (NB4 (FLT3-wt)) [µM]	GI50 (OCI-AML-3 (FLT3-wt)) [µM]	other results
NC1(Cc2ccc(Cl)cc2)CCN(c2ncnc3[nH]ccc23)CC1 [CCT128930]																	0.65	1	2.5	2.2	GI50 (MOLM-14 (FLT3-ITD/wt); MOLM-14 (FLT3-ITD/wt), 72 hours, Table 1): 1.1 µM; GI50 (U937 (FLT3-wt); 72 hours): 4.1 µM; GI50 (HL-60 (FLT3-wt)): 1.5 µM; GI50 (SKM-1 (FLT3-wt)): 4.3 µM; GI50 (PF-382 (FLT3-wt)): 1.3 µM
COc1ccc(C(=O)Nc2sc3c(c2C(N)=O)CCCC3)cc1OC [TCS359]										55.04	9.08	35.88	73.62	2.57	23.81	did not induce apoptosis	0.56	0.68	> 10	> 10	GI50 (MOLM-13 (FLT3-ITD/wt); MOLM-13+FL(1 ng/mL)): > 10 µM; GI50 (MOLM-13 (FLT3-ITD/wt); MOLM-13+FL(5 ng/mL)): > 10 µM; GI50 (MOLM-13 (FLT3-ITD/wt); MOLM-13+FL(10 ng/mL)): > 10 µM; GI50 (MOLM-13 (FLT3-ITD/wt); MOLM-13, no FLT3 ligand, Table 3): 0.42 µM; GI50 (MOLM-14 (FLT3-ITD/wt); MOLM-14+FL(1 ng/mL)): > 10 µM; GI50 (MOLM-14 (FLT3-ITD/wt); MOLM-14+FL(5 ng/mL)): > 10 µM; GI50 (MOLM-14 (FLT3-ITD/wt); MOLM-14+FL(10 ng/mL)): > 10 µM; GI50 (MV4-11 (FLT3-ITD); MV4-11+FL(10 ng/mL)): 1.4 µM; GI50 (MV4-11 (FLT3-ITD); MV4-11, no FLT3 ligand, Table 3): 0.49 µM; GI50 (U937 (FLT3-wt); 72 hours): > 10 µM; GI50 (HL-60 (FLT3-wt)): 0.54 µM; GI50 (SKM-1 (FLT3-wt)): > 10 µM; GI50 (PF-382 (FLT3-wt)): > 10 µM; Relative activity(%) (MOLM-13): 69.7%; Relative activity(%) (MOLM-14): 68.4%; Relative activity(%) (MV4-11 [1]): 98.9%; fold loss of activity with FLT3 ligand stimulation [4]: 6-15 fold
NC1(C(=O)N[C@@H](CCO)c2ccc(Cl)cc2)CCN(c2ncnc3[nH]ccc23)CC1 [AZD5363]	0.16	0.5	0.67	1.2	0.61	0.37	> 10	0.93	0.48												

Further lines, with some results ahead:

GI50 (MOLM-13 (FLT3-ITD/wt); [5]) [µM]	GI50 (MOLM-14 (FLT3-ITD/wt); [6]) [µM]	GI50 (MV4-11 (FLT3-ITD); [7]) [µM]	GI50 (OCI-AML-3 (FLT3-wt); Homo sapiens) [µM]	GI50 (U937 (FLT3-wt); Homo sapiens, U-937, 72 hours) [µM]	GI50 (HL-60 (FLT3-wt); Homo sapiens) [µM]	GI50 (SKM-1 (FLT3-wt); Homo sapiens) [µM]	Structure (SMILES)	GI50 (NB4 (FLT3-wt); Homo sapiens) [µM]	GI50 (PF-382 (FLT3-wt); Homo sapiens) [µM]	%G0–G1 (MOLM14) [%]	%G2–M (MOLM14) [%]	%S (MOLM14) [%]	%G0–G1 (MV4-11 [2]) [%]	%G2–M (MV4-11 [2]) [%]	%S (MV4-11 [2]) [%]	apoptosis induction (MOLM14, MV4-11 cells)	GI50 (MOLM-13 (FLT3-ITD/wt); [9]) [µM]	GI50 (MV4-11 (FLT3-ITD); [10]) [µM]	GI50 (NB4 (FLT3-wt)) [µM]	GI50 (OCI-AML-3 (FLT3-wt)) [µM]	other results
0.1	0.32	5.2	1.4	7.2	0.16	4.6	NC1(c2ccc(-c3nc4ccn5c(=O)[nH]nc5c4cc3-c3ccccc3)cc2)CCC1 [MK2206]	0.21	0.61	63.9	7.3	28.81	64.92	7.69	27.39	did not induce apoptosis					activity at 0.36 µM (MOLM-13; [8]): 59.3%; activity at 0.12 µM (MOLM-14; [8]): 65.5%; activity at 0.12 µM (MV4-11 [1]; [8]): 88.6%; effect on FLT3 signaling pathway (pFLT3, pSTAT5, c-MYC) [3]: did not affect this signaling pathway
0.28	0.54	5.2	> 10	5.1	0.16	> 10	CCn1c(-c2nonc2N)nc2c(C#CC(C)(C)O)ncc(OC[C@H]3CCCNC3)c21 [GSK690693]	0.22	0.24	54.52	9.78	35.7	60.48	7	32.52						
0.29	0.85	2.1	1.1	0.59	0.31	> 10	CC(C)NC[C@@H](C(=O)N1CCN(c2ncnc3c2[C@H](C)C[C@H]3O)CC1)c1ccc(Cl)cc1 [GDC0068]	5.9	0.44												
